Literature values in patent publication US20210100738A1, “OXYGEN DELIVERY BEVERAGE” (RESPIROGEN, INC., priority 2018, published 2021).

Conditions: oral co-administration of lipids, in mammals

Row | SMILES | increase in bioavailability
1 | C=C(C)[C@@H]1CCC(C)=C[C@H]1c1c(O)cc(CCCCC)cc1O [CBD, cannabidiol] | ~3 fold
2 | CCCCCc1cc(O)c2c(c1)OC(C)(C)[C@@H]1CCC(C)=C[C@@H]21 [THC, Δ^9-tetrahydrocannabinol] | more than 2.5 fold
